Literature values, collected in patent publication US20020058028A1, “METHOD OF IN SITU DIAGNOSIS BY SPECTROSCOPIC ANALYSIS OF BIOLOGICAL STAIN COMPOSITIONS” (priority 1999, published 2002).
Read-outs that look alike come from different tables or passages of the source.

Experiments:
Staphylococcus aureus = conditions: for active concentration against epidemic strains of methicillin-resistant Staphylococcus aureus: compared with vancomycin
C. albicans [1] = conditions: conditions employed
[2] = tested on: human epidermoid carcinoma (A-253) cells
[3] = tested on: influenza or encephalomyelitis viruses; conditions: human blood plasma; plasma proteins not significantly altered
[4] = tested on: microtubule cytoskeleton of cultured cells; conditions: untreated control cells normal
[5] = tested on: several other Candida spp.
HeLa cells = conditions: for incubation time to saturation of uptake: 10(−5) M
C. albicans [6] = conditions: energy dose 1.32 J at 2.04 J/cm2
Schistosoma mansoni = conditions: in vitro
Trichoderma Viride = conditions: outside the body
[7] = tested on: local tumor recurrence in the area of the anastomosis
solid Ehrlich carcinomas = conditions: mice; laser 647 nm and 676 nm
bladder carcinoma cells = conditions: in vitro; versus Azure C, Methylene violet, Thionin, methylene green, haematoporphyrin

## CN[C@H](CC(C)C)C(=O)N[C@H]1C(=O)N[C@@H](CC(N)=O)C(=O)N[C@H]2C(=O)N[C@H]3C(=O)N[C@H](C(=O)N[C@H](C(=O)O)c4cc(O)cc(O)c4-c4cc3ccc4O)[C@H](O)c3ccc(c(Cl)c3)Oc3cc2cc(c3O[C@@H]2O[C@H](CO)[C@@H](O)[C@H](O)[C@H]2O[C@H]2C[C@](C)(N)[C@H](O)[C@H](C)O2)Oc2ccc(cc2Cl)[C@H]1O [vancomycin]
Staphylococcus aureus; comparator
  concentration against epidemic strains of methicillin-resistant Staphylococcus aureus: ≥ 0.5 µM

## Dihaematoporphyrin ester
C. albicans [1]
  photosensitizer effectiveness: not an effective photosensitizer

## Cc1cc2nc3ccc(N(C)C)cc3[s+]c2cc1N.[Cl-] [toluidine blue O, 3-amino-7-(dimethylamino)-2-methyl phenothiazin-5-ium chloride]
[2]
  white light dose for ninety % reduction of clonogenicity: 1.0 J/cm2
Kluyveromyces marxianus
  ATP levels after photodynamic treatment: lowered the ATP levels
  enzyme inhibition after treatment with dye and light: inhibition of alcohol dehydrogenase, cytochrome c oxidase, glyceraldehyde-3-phosphate dehydrogenase and hexokinase
Kluyveromyces marxianus; photosensitizer with light
  clonogenicity: induce loss of clonogenicity
[3]
  virus inactivation by light in presence of dye: inactivated by light
[4]
  microtubule network after photodynamic treatment: considerable or severe disorganization of the microtubule network
[5]
  sensitization to killing by HeNe laser light: able to sensitize
HeLa cells
  concentration at which dark damage was not observed: 10(−5) M
HeLa cells; HeLa cells
  incubation time to saturation of uptake: 12 h

## aluminum disulphonated phthalocyanine
C. albicans [6]
  sensitization to killing by GaAs laser light: not

## CN(C)c1ccc2cc3ccc(N(C)C)cc3nc2c1 [acridine orange]
Schistosoma mansoni
  killing upon exposure to light: kills

## Cc1cc(=[N+](C)C)cc2sc3cc(N(C)C)cc(C)c3nc1-2.[Cl-] [dimethyl methylene blue]
Staphylococcus aureus
  active concentration against epidemic strains of methicillin-resistant Staphylococcus aureus: lower than that of vancomycin
  increase in bactericidal activity on illumination, typical: ~4 fold

## CCCCN1C(=O)C(=C/C=C/C=C2\Oc3ccccc3N2CCCS(=O)(=O)[O-])C(=O)N(CCCC)C1=S.[Na+] [merocyanine 540]
[2]
  white light dose for ninety % reduction of clonogenicity: 1.5 J/cm2

## CCNc1cc2[s+]c3cc(NCC)c(C)cc3nc2cc1C.[Cl-] [new methylene blue]
Staphylococcus aureus
  active concentration against epidemic strains of methicillin-resistant Staphylococcus aureus: lower than that of vancomycin
  increase in bactericidal activity on illumination, typical: ~4 fold

## CN(C)c1ccc2nc3ccc(=[N+](C)C)cc-3sc2c1 [methylene blue]
Trichoderma Viride
  killing upon illumination: kill
C. albicans [6]
  sensitization to killing by GaAs laser light: able to sensitize
Schistosoma mansoni
  killing upon exposure to light: kills
[4]
  microtubule network after photodynamic treatment: considerable or severe disorganization of the microtubule network
[7]; after PDT-treatment
  local tumor growth in treated areas: no local tumor growth within 6 months
[7]; experimental or clinical
  complications during or after PDT: no experimental or clinical complications
Small adenocarcinomas; 72 hours after PDT-treatment, proven experimentally
  tumor necrosis: 4-5 mm
Small adenocarcinomas; after the second PDT-treatment
  tumors destroyed: 6 out of 10
Small adenocarcinomas; after the treatment
  carcinomas with inhibited growth: Four
HeLa cells; HeLa cells
  incubation time to saturation of uptake: 6 h
  cell photoinactivation, comparison: higher than that produced by TB
HeLa cells; HeLa cells, elevated photoinactivation detected at this concentration
  concentration at which dark damage was not observed: 10(−5) M
Solid Ehrlich carcinomas
  tumor destruction: significant tumor destruction, including complete tumor destruction
Staphylococcus aureus
  increase in bactericidal activity on illumination, typical: ~4 fold
Bladder carcinoma cells
  phototoxicity compared with other dyes: most phototoxic

## rhodamine 123
[2]
  white light dose for ninety % reduction of clonogenicity: 1.2 J/cm2
